Columns and labels:
[1] = system: H3N2 (influenza virus); conditions: H3N2 in host cell MDCK
[2] = system: H3N2 (influenza virus); experiment: microbe, parasite or virus in culture; conditions: Influenza A virus, H3N2, MDCK
[3] = system: H7N9 (influenza virus); experiment: microbe, parasite or virus in culture; conditions: Influenza A virus, H7N9, MDCK
[4] = system: H1N1 (influenza virus); conditions: H1N1 in host cell MDCK
[5] = in vitro; conditions: dog
[6] = system: H1N1 (influenza virus); experiment: microbe, parasite or virus in culture; conditions: Influenza A virus, H1N1, MDCK
[7] = system: Dengue Virus 2 (type 2 dengue virus); experiment: Inhibition of viral replication (CPE) at cellular level, Dengue Virus 2 in Vero; format: cell-based; conditions: Dengue Virus 2 in host cell Vero
Source text: Activity Test for Inhibition of Viral Replication at Cellular Level […]
The present inventors tested inhibitory effects of the compound of the present invention on cytopathic effects (CPE) caused by viral infection on mammalian cells.
Half-inhibitory concentration IC50 and half toxic concentration TC50 of the compound against Dengue Virus 2 (type 2 dengue virus) in host cell Vero (African green monkey kidney cell).

[8] = system: Zika Virus; experiment: Inhibition of viral replication (CPE) at cellular level, Zika Virus in Vero
[9] = system: EV71 (hand-foot-and-mouth virus); conditions: EV71 in host cell RD
[10] = system: EV71 (hand-foot-and-mouth virus); experiment: microbe, parasite or virus in culture; conditions: Enterovirus A
[11] = in vitro; conditions: African green monkey, TC50, host cell Vero
[12] = system: RSV (human respiratory syncytial virus); experiment: Inhibition of viral replication (CPE) at cellular level, RSV in Vero
[13] = Determination of TC50 (half toxicity concentration) in RD cells; format: cell-based; conditions: human, host cell RD, EV71 table
[14] = TC50, host cell MDCK, H1N1 table
[15] = TC50, host cell MDCK, H3N2 table

| SMILES | SI (TC50/IC50) [1] | IC50 ([2]; H3N2 in host cell MDCK, CPE) [µM] | SI (TC50/IC50) [4] | CC50 [5, 14] [µM] | CC50 [5, 15] [µM] | IC50 ([6]; H1N1 in host cell MDCK, CPE) [µM] | other results |
| --- | --- | --- | --- | --- | --- | --- | --- |
| Cc1ccc(/C=N/N(C)c2nc(-c3ccccc3)c(C)s2)c(C(=O)O)c1 [Compound 11, (E)-5-methyl-4-phenyl-2-[1-methyl-2-(4-methyl-2-carboxybenzylidene)hydrazino]thiazole] | 2.72 | 86 | 47 | 241 | 234 | 5.1 | IC50 [3]: 14 µM; CC50 ([5]; TC50): 54 µM |
| Cc1sc(N/N=C/c2ccccc2C(=O)O)nc1-c1ccccc1 [Compound 17, (E)-5-methyl-4-phenyl-2-(2-carboxylbenzylidenehydrazino)thiazole] | 62.6 | 1.5 | 7 | 561 | 94 | 8.1 |  |
| Cc1sc(N(C)/N=C/c2ccccc2C(=O)O)nc1-c1ccccc1Cl [Compound 13] | 3.27 | 114 | 1.3 | 87 | 373 | 65 |  |
| CCCC(C)N(/N=C/c1ccccc1C(=O)O)c1nc(-c2ccccc2Cl)cs1 (stereo not drawn) [Compound 6, (E)-4-(2-chlorophenyl)-2-[1-(2-amyl)-2-(2-carboxybenzylidene)hydrazino]thiazole] | 0.18 | 554 | 2 | 451 | 97 | 124 |  |
| CC(C)N(/N=C/c1ccccc1C(=O)O)c1nc(-c2ccccc2Cl)cs1 [Compound 4, (E)-4-(2-chlorophenyl)-2-[1-isopropyl-2-(2-carboxybenzylidene)hydrazino]thiazole] | 0.31 | 112 | 8.8 | 23 | 35 | 2.6 |  |
| O=C(O)c1ccccc1/C=N/Nc1nc(-c2ccccc2)cs1 [Compound 18, (E)-4-phenyl-2-(2-carboxybenzylidenehydrazino)thiazole] | 3.3 | 45 | 12 | 124 | 148 | 10.2 |  |
| O=C(O)c1ccccc1/C=N/Nc1nc(-c2ccc(-c3ccccc3)cc2)cs1 [Compound 57, (E)-2-((2-(4-(biphenyl-4-yl)thiazol-2-yl)hydrazono)methyl)benzoic Acid] |  | 4430 |  |  |  | 1290 |  |
| CCc1sc(N/N=C/c2ccccc2C(=O)O)nc1-c1ccccc1Cl [Compound 14, (E)-5-ethyl-4-(2-chlorophenyl)-2-(2-carboxylbenzylidenehydrazino)thiazole] | 0.16 | 550 | 2.1 | 88 | 91 | 41 |  |
| NC(=O)c1cccc(-c2csc(N/N=C/c3ccccc3C(=O)O)n2)c1 [Compound 53, (E)-2-((2-(4-(3-aminoformylphenyl)thiazol-2-yl)hydrazono)methyl)benzoic Acid] |  | 216 |  |  |  | 781 |  |
| Cc1ccc(-c2csc(N/N=C/c3ccccc3C(=O)O)n2)cc1 [Compound 54, (E)-2-((2-(4-(p-tolyl)thiazol-2-yl)hydrazono)methyl)benzoic Acid] |  | 326 |  |  |  | 112 |  |
| CN(/N=C/c1ccccc1C(=O)O)c1nc(-c2ccccc2)cs1 [Compound 20, (E)-4-phenyl-2-[1-methyl-2-(2-carboxybenzylidene)hydrazino]thiazole] | 11 | 5.2 | 22.8 | 57 | 57 | 2.5 |  |
| CN(/N=C/c1cc(N)c(F)cc1C(=O)O)c1nc(-c2ccccc2Cl)cs1 [Compound 25] |  | 742 |  |  |  | 485 |  |
| CN(/N=C/c1cc(O)c(F)cc1C(=O)O)c1nc(-c2ccccc2Cl)cs1 [Compound 24] |  | 152 |  |  |  | 325 |  |
| CCCN(/N=C/c1ccccc1C(=O)O)c1nc(-c2ccccc2Cl)cs1 [Compound 3, (E)-4-(2-chlorophenyl)-2-[1-propyl-2-(2-carboxybenzylidene)hydrazino]thiazole] | 2.08 | 25 | 7 | 86 | 52 | 12.3 |  |
| CCCC(C)N(/N=C/c1ccccc1C(=O)O)c1nc(-c2ccccc2Cl)c(C)s1 (stereo not drawn) [Compound 22, (E)-5-methyl-4-(2-chlorophenyl)-2-[1-(2-amyl)-2-(2-carboxybenzylidene)hydrazino]thiazole] | 1.6 | 248 | 2.7 | 148 | 415 | 55 |  |
| O=C(O)c1ccccc1/C=N/N(CCO)c1nc(-c2ccccc2Cl)cs1 [Compound 7] | 0.5 | 248 | 1.6 | 355 | 124 | 221 |  |
| CN(/N=C/c1cc(F)c(F)cc1C(=O)O)c1nc(-c2ccccc2Cl)cs1 [Compound 23] |  |  | 223 | 87 |  | 0.39 | IC50 [3]: 0.35 µM; CC50 ([5]; TC50): 54 µM |
| CN(/N=C/c1ccccc1C(=O)O)c1nc(-c2cccc(Cl)c2)cs1 [Compound 21, (E)-4-(3-chlorophenyl)-2-[1-methyl-2-(2-carboxybenzylidene)hydrazino]thiazole] | 19.6 | 2.5 | 7.6 | 41 | 49 | 5.4 |  |
| COc1cccc(-c2csc(N/N=C/c3ccccc3C(=O)O)n2)c1 [Compound 52, (E)-2-((2-(4-(3-methoxyphenyl)thiazol-2-yl)hydrazono)methyl)benzoic Acid] |  | 147 |  |  |  | 1240 |  |
| Cc1sc(N/N=C/c2ccccc2C(=O)O)nc1-c1ccccc1Cl [Compound 15, (E)-5-methyl-4-(2-chlorophenyl)-2-(2-carboxylbenzylidenehydrazino)thiazole] |  | 351 | 3.3 | 412 | 88 | 124 |  |
| O=C(O)c1ccccc1/C=N/Nc1nc(-c2ccc3ccccc3c2)cs1 [Compound 56, (E)-2-((2-(4-(naphthalen-2-yl)thiazol-2-yl)hydrazono)methyl)benzoic Acid] |  | 549 |  |  |  | 2310 |  |
| O=C(O)c1ccccc1/C=N/Nc1nc(-c2cc(Cl)ccc2Cl)cs1 [Compound 55, (E)-2-((2-(4-(2,5-dichlorophenyl)thiazol-2-yl)hydrazono)methyl)benzoic Acid] | 45.6 |  | 50 |  |  |  | SI (TC50/IC50) [7]: 110; IC50 ([7]; CPE): 0.63 µM; SI (TC50/IC50) ([8]; Zika Virus in host cell Vero): 206; IC50 ([8]; Zika virus, Vero): 0.33 µM; SI (TC50/IC50) [9]: 6; IC50 [2]: 12 µM; IC50 [3]: 6.9 µM; IC50 [10]: 0.51 µM; CC50 ([5]; TC50): 547 µM; CC50 ([11]; Dengue Virus 2 table): 69 µM; CC50 ([11]; RSV table): 154 µM; CC50 ([11]; Zika Virus table): 68 µM; IC50 [6]: 8.2 µM; SI (TC50/IC50) ([12]; RSV in host cell Vero): 19; IC50 ([12]; human respiratory syncytial virus, Vero): 8.2 µM; CC50 [13]: 3.1 µM |
| CCC(C)N(/N=C/c1ccccc1C(=O)O)c1nc(-c2ccccc2Cl)cs1 (stereo not drawn) [Compound 5, (E)-4-(2-chlorophenyl)-2-[1-(2-butyl)-2-(2-carboxybenzylidene)hydrazino]thiazole] | 0.37 | 243 | 1.3 | 68 | 89 | 52 |  |
| CN(/N=C/c1ccccc1C(=O)O)c1nc(-c2cc(Cl)ccc2Cl)cs1 [Compound 19, (E)-4-(2,5-dichlorophenyl)-2-[1-methyl-2-(2-carboxybenzylidene)hydrazino]thiazole] | 47.8 | 0.9 | 46 | 26 | 43 | 0.56 |  |
| O=C(O)c1c(F)cccc1/C=N/Nc1nc(-c2ccccc2Cl)cs1 [Compound 58, (E)-2-((2-(4-(2-chlorophenyl)thiazol-2-yl)hydrazono)methyl)-6-fluorobenzoic Acid] |  | 365 | 45 | 254 |  | 5.6 |  |
